Common to all, as to assay: inhibition of tumour cell growth, NCI panel, 48 h
Assay [1] concerns UACC-62 melanoma.
The test system of assay [2] is SK-MEL-28 melanoma.
The test system of assay [3] is HS 578T breast.
For assay [4], the system named is COLO 205 colon.
The subject of assay [5] is NCI-H226 lung.
The subject of assay [6] is SN12C renal.
The test system of assay [7] is CAKI-1 renal.
Assay [8] deals with HL-60(TB) leukemia.
Assay [9] relates to RPMI-8226 leukemia.
Assay [10] concerns EKVX NSCLC.

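All cell lines were grown in 96-well plates and treated with compound for 48 hours. GI50 is the concentration that inhibits growth by half. At the TGI there is no net growth.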

For the compound `Nc1c(C(=O)Nc2cccc(C(F)(F)F)c2)sc2nc3c(cc12)CCCCCC3`, the GI50 in assay [1] is 3.25 µM; in [2], 3.36 µM; in assay [3], 3.25 µM; in [4] it was 3.07 µM; in assay [5] it was 1.76 µM; in assay [6], 3.15 µM. Besides, the GI50 is 2.49 µM in assay [7], 11.3 µM in [8] and 2.96 µM in [9]. Moreover, the TGI in assay [1] was determined as 21.5 µM; in [2], 15.9 µM; in assay [3], 9.92 µM; in assay [4] it was 14 µM; in assay [5], 11.9 µM; in [6], 13 µM. Besides, the TGI is 10.2 µM in [7], above 100 µM in [8] and 17.5 µM in [9].

`CC/C(=C(/c1ccc(OCCN(C)C)cc1)c1ccc(OC(=O)CCCCCCCCC(=O)c2c(C)[nH]c(/C=C3\N=C(c4ccc[nH]4)C=C3OC)c2C)cc1)c1ccccc1`: the GI50 is 3.37 µM in assay [1]; 43.9 µM in [2]; 4.74 µM in assay [3]; 8.2 µM in assay [4]; above 100 µM in assay [5]; 7.55 µM in assay [6]. Moreover, the GI50 in assay [7] is 7 µM; in assay [8], 12.3 µM; in assay [9] it was 3.75 µM. The TGI in assay [1] was 18.1 µM; in assay [2], above 100 µM; in [3], 85 µM; in [4], 78 µM; in assay [5] it was above 100 µM; in assay [6], above 100 µM. Besides, the TGI in [7], in assay [8] and in [9] was above 100 µM in each case.

Turning to `CN(C)C1CN(C(=O)c2cc(-c3ccc4ncnc(N5CCc6cc(F)c(Cl)cc65)c4c3)cnc2N)C1`, the GI50 in assay [1] was 0.43 µM; in [2], 0.869 µM; in [3], 0.241 µM; in assay [4], 1.97 µM; in [5] it was 0.986 µM; in assay [6] it was 0.385 µM. Besides, the GI50 was 0.509 µM in [7], 0.151 µM in assay [8] and 0.489 µM in assay [9]. Moreover, the TGI is 2.16 µM in assay [1]; above 100 µM in assay [2]; 1.31 µM in assay [3]; above 100 µM in assay [4]; above 100 µM in [5]; above 100 µM in assay [6]. Also, the TGI in assay [7] was above 100 µM; in assay [8] it was 1.49 µM; in assay [9] it was 2.7 µM.

Take `COc1cc(C2CC(c3cccc(Nc4ccnc5cc(Cl)ccc45)c3)=NN2c2ccccc2)cc(OC)c1OC` (centres undefined): the GI50 in assay [1] is 0.869 µM; in assay [2], 10.4 µM; in assay [3] it was 9.22 µM; in [4], 15.7 µM; in [5] it was 41.2 µM; in assay [6], above 100 µM. Besides, the figures for the GI50 in [7], in [8] and in assay [9] were 2.52 µM, 5.37 µM and 5.33 µM, respectively. Further, the TGI was above 100 µM in [1]; above 100 µM in assay [2]; above 100 µM in [3]; 46.3 µM in [4]; above 100 µM in assay [5]; above 100 µM in assay [6]. The TGI in assay [7], in [8] and in assay [9] was above 100 µM in each case.

On to `COc1cc(N2CCC(N)CC2)ccc1Nc1ncc(Cl)c(-c2c[nH]c3ccccc23)n1`, for which the GI50 in assay [2] is 1.31 µM; in assay [3], 0.741 µM; in assay [4] it was 0.0248 µM; in assay [5] it was 0.334 µM; in [6] it was 0.869 µM; in assay [7] it was 0.335 µM. For the same compound, the GI50 in assay [8] is 0.0412 µM; in assay [9], 1.28 µM. The TGI in assay [2] stood at 2.64 µM; in assay [3], 3.87 µM; in assay [4], 0.269 µM; in assay [5], 3.59 µM; in [6], 3.76 µM; in assay [7] it was 2.1 µM. The values for the TGI in [8] and in assay [9] were 2.75 µM and 3.89 µM, respectively.

In the case of `CCc1ncc(CO)n1Cc1cccc2ccccc12`, the TGI in assay [1], in assay [2], in assay [3], in [4], in [5] and in assay [10] was above 100 µM each time. Further, the TGI in [6], in assay [7] and in assay [9] was above 100 µM throughout.

For the compound `CN(C)c1ccc(/C=c2/c3cc(O)ccc3n3c2cc(-c2ccccc2)[n+]3C)cc1`, the GI50 is above 100 µM in assay [1], 0.187 µM in [6] and 1.35 µM in [9]. In addition, the TGI in assay [2] is 2.36 µM; in assay [3], 1.25 µM; in assay [5], above 100 µM; in [7], above 100 µM; in [8], 1.05 µM.

In the case of `CC1(C)C(CC(=O)O)CCCC1CC(=O)O` (centres undefined), the TGI in [1], in assay [2], in [3], in [4], in assay [5] and in assay [10] was above 100 µM each time. Besides, the TGI in [6], in assay [7] and in assay [9] was above 100 µM in each case.

The values are drawn from PubChem BioAssay (NCI).
